# Experiments:
# [1] = system: dihydrofolic acid reductase; settings: in words, prior art; cited from earlier work
# [2] = system: glycinamide ribonucleotide transformylase; settings: in words, Journal of Medicinal Chemistry, 28, 914(1985); cited from earlier work
# [3] = system: Human epidermoid carcinoma KB cells; test: cell growth inhibiting effect on KB cells (MTT, 72 hours); assay type: cell-based; settings: 37° C., 5% CO2, MTT, absorbance at 590 nm
# Method: The cell growth inhibiting effect (IC50) on KB cells of the compounds obtained in the following Examples was measured by the following method. (Hereinafter, % means weight %.)
# Human epidermoid carcinoma KB cells (1×10^4 /ml) prepared by a conventional method were inoculated in a volume of 0.1 ml for each hole of the 96-microwell plate, and cultured at 37° C. for 24 hours without agitation in an atmosphere of 5% CO2. A 10% solution of one compound obtained by Example in 10% MEM (minimal essential medium, Nissui Pharmaceutical Co. Ltd, Japan) was added thereto, and the cells were cultured again at 37° C. for 72 hours without agitation in an atmosphere of 5% CO2. The culture was removed by using a micropipet, and another 10% solution 0.1 ml of MTT [3-(4,5-dimethylthiazol-2-yl)-2,5-diphenyltetrazolium bromide] (Dojin Laboratories, Japan) in 10% MEM (1.0 mg/ml) was added thereto. The cells were cultured at 37° C. for 4 hours. A 10% SDS [sodium dodecylsulfate](Wako Pure Chimicals, Japan) solution (0.1 ml) was further added, and the cells were cultured at 37° C. for 24 hours. The absorbance at 590 nm was measured, and the concentration of a drug needed for decreasing the number of cells in non-treated control group to a degree of 50% was determined as IC50 value of the compound.
IC50 [3],Structure (SMILES),inhibition of dihydrofolic acid reductase [1],inhibition of glycinamide ribonucleotide transformylase [2]
–,Nc1nc2c(c(=O)[nH]1)C[C@@H](CCc1ccc(C(=O)N[C@@H](CCC(=O)O)C(=O)O)cc1)CN2 [DDATHF],does not inhibit dihydrofolic acid reductase,main mechanism of which consists in inhibition of glycinamide ribonucleotide transformylase
0.43 ng/mL,"Nc1nc(N)c2c(CCCc3ccc(C(=O)N[C@@H](CCC(=O)O)C(=O)O)s3)c[nH]c2n1 [Example 3, N-[5-(3-(2,4-diamino-7H-pyrrolo[2,3-d]pyrimidin-5-yl)propyl)-2-thenoyl]-L-glutamic acid]",–,–
–,CN(Cc1cnc2nc(N)nc(N)c2n1)c1ccc(C(=O)N[C@@H](CCC(=O)O)C(=O)O)cc1 [methotrexate],inhibit the reduction from dihydrofolic acid to tetrahydrofolic acid by coupling strongly with the dominant enzyme in the second step,–

# Source: patent US5354754A, “Pyrrolopyrimidines, their production and use” (Takeda Chemical Industries, Ltd., priority 1989, dated 1994)
